From ChEMBL document CHEMBL4507265 (2021)

Tests used:
[1] = target: Tyrosine-protein kinase JAK2 (Homo sapiens) (UniProt O60674); settings: Compound concentration 1000.0 nM
[2] = target: Histamine H1 receptor (Homo sapiens) (UniProt P35367); settings: Compound concentration 10.0 uM
[3] = target: Histamine H2 receptor (Homo sapiens) (UniProt P25021); settings: Compound concentration 10.0 uM
[4] = system: ALK tyrosine kinase receptor (Homo sapiens), Q9UM73 [C1156Y]; settings: Compound concentration 1000.0 nM
ALK tyrosine kinase receptor (Homo sapiens), Q9UM73 [C1156Y], sequence (Q9UM73 whole entry C1156Y, looked up): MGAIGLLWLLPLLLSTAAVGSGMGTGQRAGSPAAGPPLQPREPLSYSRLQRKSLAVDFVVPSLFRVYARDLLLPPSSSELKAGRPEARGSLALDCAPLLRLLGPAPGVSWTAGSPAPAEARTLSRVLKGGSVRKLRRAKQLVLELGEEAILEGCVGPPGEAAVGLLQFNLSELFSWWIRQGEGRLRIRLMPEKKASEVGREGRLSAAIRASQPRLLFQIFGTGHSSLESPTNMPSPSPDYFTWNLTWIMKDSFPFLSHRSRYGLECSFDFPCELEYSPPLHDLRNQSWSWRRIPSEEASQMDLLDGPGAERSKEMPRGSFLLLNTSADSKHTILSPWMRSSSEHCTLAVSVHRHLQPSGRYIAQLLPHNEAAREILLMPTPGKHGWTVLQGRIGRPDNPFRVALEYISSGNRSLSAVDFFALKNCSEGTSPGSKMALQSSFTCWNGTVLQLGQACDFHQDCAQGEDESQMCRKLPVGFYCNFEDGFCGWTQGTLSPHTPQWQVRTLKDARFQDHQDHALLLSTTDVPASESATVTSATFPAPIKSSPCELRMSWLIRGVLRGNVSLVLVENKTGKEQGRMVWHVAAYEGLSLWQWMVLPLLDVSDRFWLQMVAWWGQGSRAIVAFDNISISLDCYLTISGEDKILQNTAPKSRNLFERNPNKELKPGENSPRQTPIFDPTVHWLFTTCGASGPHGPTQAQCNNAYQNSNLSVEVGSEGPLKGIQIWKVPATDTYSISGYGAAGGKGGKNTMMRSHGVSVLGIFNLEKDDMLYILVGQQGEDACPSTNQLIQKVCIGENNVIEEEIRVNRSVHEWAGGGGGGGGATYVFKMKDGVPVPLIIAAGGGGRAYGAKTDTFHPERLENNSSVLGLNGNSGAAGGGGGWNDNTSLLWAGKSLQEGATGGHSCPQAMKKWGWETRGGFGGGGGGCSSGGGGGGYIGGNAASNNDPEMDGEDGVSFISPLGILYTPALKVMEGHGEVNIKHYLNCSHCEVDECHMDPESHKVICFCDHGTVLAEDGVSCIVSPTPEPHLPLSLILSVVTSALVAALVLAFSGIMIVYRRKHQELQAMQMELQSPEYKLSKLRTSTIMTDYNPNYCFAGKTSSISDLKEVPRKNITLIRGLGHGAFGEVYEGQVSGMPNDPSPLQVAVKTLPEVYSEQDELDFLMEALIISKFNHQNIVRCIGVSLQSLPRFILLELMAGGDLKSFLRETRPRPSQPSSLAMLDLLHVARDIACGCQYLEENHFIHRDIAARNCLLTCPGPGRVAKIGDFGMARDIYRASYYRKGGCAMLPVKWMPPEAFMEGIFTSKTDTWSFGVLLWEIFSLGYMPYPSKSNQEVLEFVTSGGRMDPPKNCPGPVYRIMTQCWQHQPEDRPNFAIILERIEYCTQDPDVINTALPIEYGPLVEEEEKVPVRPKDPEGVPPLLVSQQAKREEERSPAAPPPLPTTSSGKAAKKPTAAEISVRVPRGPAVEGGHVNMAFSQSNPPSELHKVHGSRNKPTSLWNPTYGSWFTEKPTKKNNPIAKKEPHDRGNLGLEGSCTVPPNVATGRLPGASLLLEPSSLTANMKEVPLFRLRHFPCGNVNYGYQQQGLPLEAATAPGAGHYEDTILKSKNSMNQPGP

[5] = target: T1, Alpha-1D adrenergic receptor (Homo sapiens) (UniProt P25100); settings: Compound concentration 10.0 uM
T1 sequence (whole entry): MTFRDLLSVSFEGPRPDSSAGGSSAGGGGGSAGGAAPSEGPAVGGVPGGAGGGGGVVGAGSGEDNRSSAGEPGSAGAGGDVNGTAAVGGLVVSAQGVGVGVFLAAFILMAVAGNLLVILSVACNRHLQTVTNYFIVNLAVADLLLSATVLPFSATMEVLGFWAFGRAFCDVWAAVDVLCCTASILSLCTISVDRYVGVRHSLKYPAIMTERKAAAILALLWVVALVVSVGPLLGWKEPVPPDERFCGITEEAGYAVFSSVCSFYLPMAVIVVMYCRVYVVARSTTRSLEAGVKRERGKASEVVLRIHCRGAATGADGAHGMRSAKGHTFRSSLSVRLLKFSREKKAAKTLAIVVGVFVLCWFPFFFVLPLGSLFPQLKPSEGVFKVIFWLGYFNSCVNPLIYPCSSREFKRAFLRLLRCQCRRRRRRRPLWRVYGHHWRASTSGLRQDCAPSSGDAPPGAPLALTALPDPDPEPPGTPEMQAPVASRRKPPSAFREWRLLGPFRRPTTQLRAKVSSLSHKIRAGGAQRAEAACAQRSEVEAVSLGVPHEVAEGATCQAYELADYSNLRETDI

[6] = target: Homeodomain-interacting protein kinase 2 (Homo sapiens) (UniProt Q9H2X6); settings: Compound concentration 1000.0 nM
[7] = target: Microtubule-associated serine/threonine-protein kinase 1 (Homo sapiens) (UniProt Q9Y2H9); settings: Compound concentration 1000.0 nM
[8] = target: RAC-alpha serine/threonine-protein kinase (Homo sapiens) (UniProt P31749); settings: Compound concentration 1000.0 nM
[9] = target: Glycogen synthase kinase-3 beta (Homo sapiens) (UniProt P49841); settings: Compound concentration 1000.0 nM
[10] = system: Receptor-type tyrosine-protein kinase FLT3 (Homo sapiens), P36888 [UNDEFINED MUTATION]; settings: Compound concentration 1000.0 nM
[11] = target: Fibroblast growth factor receptor 3 (Homo sapiens) (UniProt P22607); settings: Compound concentration 1000.0 nM
[12] = target: Citron Rho-interacting kinase (Homo sapiens) (UniProt O14578); settings: Compound concentration 1000.0 nM
[13] = target: Serine/threonine-protein kinase TAO1 (Homo sapiens) (UniProt Q7L7X3); settings: Compound concentration 1000.0 nM
[14] = system: Epidermal growth factor receptor (Homo sapiens), P00533 [G719S]; settings: Compound concentration 1000.0 nM
[15] = system: Phosphatidylinositol 4,5-bisphosphate 3-kinase catalytic subunit alpha isoform (Homo sapiens), P42336 [C420R]; settings: Compound concentration 1000.0 nM
[16] = target: Serine/threonine-protein kinase TAO2 (Homo sapiens) (UniProt Q9UL54); settings: Compound concentration 1000.0 nM
[17] = target: Mitogen-activated protein kinase 3 (Homo sapiens) (UniProt P27361); settings: Compound concentration 1000.0 nM
[18] = system: Phosphatidylinositol 4,5-bisphosphate 3-kinase catalytic subunit alpha isoform (Homo sapiens), P42336 [Q546K]; settings: Compound concentration 1000.0 nM
[19] = target: Dual specificity protein kinase CLK1 (Homo sapiens) (UniProt P49759); settings: Compound concentration 1000.0 nM
[20] = target: Uncharacterized serine/threonine-protein kinase SBK3 (Homo sapiens) (UniProt P0C264); settings: Compound concentration 1000.0 nM
[21] = target: Serine/threonine-protein kinase TBK1 (Homo sapiens) (UniProt Q9UHD2); settings: Compound concentration 1000.0 nM
[22] = target: Serine/threonine-protein kinase 32C (Homo sapiens) (UniProt Q86UX6); settings: Compound concentration 1000.0 nM
[23] = target: Dual specificity mitogen-activated protein kinase kinase 2 (Homo sapiens) (UniProt P36507); settings: Compound concentration 1000.0 nM
[24] = target: Muscarinic acetylcholine receptor M3 (Homo sapiens) (UniProt P20309); settings: Compound concentration 10.0 uM
[25] = target: Serine/threonine-protein kinase TAO3 (Homo sapiens) (UniProt Q9H2K8); settings: Compound concentration 1000.0 nM
[26] = target: Calcium/calmodulin-dependent protein kinase type 1G (Homo sapiens) (UniProt Q96NX5); settings: Compound concentration 1000.0 nM
[27] = target: 5-hydroxytryptamine receptor 6 (Homo sapiens) (UniProt P50406); settings: Compound concentration 10.0 uM
[28] = target: Mitogen-activated protein kinase 4 (Homo sapiens) (UniProt P31152); settings: Compound concentration 1000.0 nM
[29] = target: Dual specificity mitogen-activated protein kinase kinase 5 (Homo sapiens) (UniProt Q13163); settings: Compound concentration 1000.0 nM
[30] = target: Mitogen-activated protein kinase 12 (Homo sapiens) (UniProt P53778); settings: Compound concentration 1000.0 nM
Mitogen-activated protein kinase 12 (Homo sapiens), sequence (P53778 whole entry): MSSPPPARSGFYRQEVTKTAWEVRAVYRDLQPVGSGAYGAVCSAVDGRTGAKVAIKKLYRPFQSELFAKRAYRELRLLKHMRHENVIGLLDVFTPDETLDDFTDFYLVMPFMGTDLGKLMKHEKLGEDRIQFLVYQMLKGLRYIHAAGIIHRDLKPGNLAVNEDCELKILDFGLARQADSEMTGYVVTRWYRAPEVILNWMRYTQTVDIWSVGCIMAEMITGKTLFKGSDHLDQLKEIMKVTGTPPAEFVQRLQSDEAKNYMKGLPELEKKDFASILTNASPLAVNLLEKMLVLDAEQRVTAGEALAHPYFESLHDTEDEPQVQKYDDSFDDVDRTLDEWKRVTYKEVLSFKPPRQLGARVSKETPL

[31] = target: Tyrosine-protein kinase Mer (Homo sapiens) (UniProt Q12866); settings: Compound concentration 1000.0 nM
Tyrosine-protein kinase Mer (Homo sapiens), sequence (Q12866 whole entry): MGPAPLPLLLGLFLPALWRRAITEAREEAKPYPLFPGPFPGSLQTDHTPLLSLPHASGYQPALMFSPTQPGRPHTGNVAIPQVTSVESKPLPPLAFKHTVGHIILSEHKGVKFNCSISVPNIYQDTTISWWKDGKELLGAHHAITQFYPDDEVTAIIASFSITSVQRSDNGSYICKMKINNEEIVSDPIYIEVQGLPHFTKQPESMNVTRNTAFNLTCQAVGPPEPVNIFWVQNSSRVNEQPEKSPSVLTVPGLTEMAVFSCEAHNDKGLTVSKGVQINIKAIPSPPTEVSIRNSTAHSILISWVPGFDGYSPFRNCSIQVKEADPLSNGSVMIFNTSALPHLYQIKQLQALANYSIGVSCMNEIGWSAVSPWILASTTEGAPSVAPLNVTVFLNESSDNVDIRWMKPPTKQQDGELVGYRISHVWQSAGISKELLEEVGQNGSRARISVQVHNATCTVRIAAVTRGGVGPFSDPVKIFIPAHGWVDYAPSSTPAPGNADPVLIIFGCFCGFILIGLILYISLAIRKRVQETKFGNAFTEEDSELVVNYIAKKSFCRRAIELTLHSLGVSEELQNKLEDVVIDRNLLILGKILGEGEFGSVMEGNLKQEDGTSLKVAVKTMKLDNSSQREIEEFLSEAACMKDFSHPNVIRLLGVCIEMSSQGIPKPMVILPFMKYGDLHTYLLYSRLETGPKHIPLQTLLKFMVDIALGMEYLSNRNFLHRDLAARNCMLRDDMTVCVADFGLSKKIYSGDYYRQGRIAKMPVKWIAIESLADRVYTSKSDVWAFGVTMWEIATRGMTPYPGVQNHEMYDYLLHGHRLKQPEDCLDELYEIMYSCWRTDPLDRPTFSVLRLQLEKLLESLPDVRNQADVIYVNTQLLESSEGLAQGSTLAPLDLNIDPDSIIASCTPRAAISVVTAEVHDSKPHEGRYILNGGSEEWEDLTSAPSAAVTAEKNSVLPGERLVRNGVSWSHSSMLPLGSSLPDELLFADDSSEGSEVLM

[32] = target: BMP-2-inducible protein kinase (Homo sapiens) (UniProt Q9NSY1); settings: Compound concentration 1000.0 nM
[33] = system: Epidermal growth factor receptor (Homo sapiens), P00533 [G719C]; settings: Compound concentration 1000.0 nM
[34] = target: Serine/threonine-protein kinase WNK4 (Homo sapiens) (UniProt Q96J92); settings: Compound concentration 1000.0 nM
Serine/threonine-protein kinase WNK4 (Homo sapiens), sequence (Q96J92 whole entry): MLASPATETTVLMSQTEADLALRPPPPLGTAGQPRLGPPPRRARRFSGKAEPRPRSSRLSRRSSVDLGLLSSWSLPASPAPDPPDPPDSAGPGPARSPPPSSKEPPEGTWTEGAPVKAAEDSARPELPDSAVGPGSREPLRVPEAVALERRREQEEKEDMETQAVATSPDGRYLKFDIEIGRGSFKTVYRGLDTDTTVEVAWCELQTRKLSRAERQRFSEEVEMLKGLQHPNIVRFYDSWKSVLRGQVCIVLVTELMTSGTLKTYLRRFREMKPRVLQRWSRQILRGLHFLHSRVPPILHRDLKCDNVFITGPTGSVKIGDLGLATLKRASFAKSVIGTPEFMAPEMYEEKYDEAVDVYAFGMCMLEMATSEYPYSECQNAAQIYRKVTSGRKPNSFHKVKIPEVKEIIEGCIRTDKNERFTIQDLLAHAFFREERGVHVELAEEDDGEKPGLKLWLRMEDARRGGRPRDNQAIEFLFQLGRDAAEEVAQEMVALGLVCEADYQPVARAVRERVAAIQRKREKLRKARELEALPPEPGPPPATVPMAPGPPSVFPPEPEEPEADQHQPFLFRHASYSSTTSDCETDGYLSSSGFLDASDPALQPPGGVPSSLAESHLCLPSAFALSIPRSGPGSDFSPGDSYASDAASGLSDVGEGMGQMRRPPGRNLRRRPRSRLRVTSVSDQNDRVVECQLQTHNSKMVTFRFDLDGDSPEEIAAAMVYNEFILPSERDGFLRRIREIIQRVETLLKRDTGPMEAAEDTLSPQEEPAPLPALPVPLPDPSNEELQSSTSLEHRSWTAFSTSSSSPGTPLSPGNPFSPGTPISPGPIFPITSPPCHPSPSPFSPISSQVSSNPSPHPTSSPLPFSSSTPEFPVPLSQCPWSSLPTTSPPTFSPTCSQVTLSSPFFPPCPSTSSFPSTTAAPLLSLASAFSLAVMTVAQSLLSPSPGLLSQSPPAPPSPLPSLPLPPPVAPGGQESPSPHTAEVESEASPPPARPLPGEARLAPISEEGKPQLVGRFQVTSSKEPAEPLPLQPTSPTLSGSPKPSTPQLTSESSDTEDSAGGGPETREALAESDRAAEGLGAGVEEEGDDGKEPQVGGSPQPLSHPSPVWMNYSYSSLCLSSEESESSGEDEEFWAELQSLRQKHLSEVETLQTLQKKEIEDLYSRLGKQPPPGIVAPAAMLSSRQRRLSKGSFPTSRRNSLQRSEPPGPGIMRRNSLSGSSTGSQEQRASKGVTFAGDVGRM

[35] = target: Tyrosine-protein kinase receptor Tie-1 (Homo sapiens) (UniProt P35590); settings: Compound concentration 1000.0 nM
[36] = target: Cyclin-G-associated kinase (Homo sapiens) (UniProt O14976); settings: Compound concentration 1000.0 nM
[37] = target: Leukocyte tyrosine kinase receptor (Homo sapiens) (UniProt P29376); settings: Compound concentration 1000.0 nM
Leukocyte tyrosine kinase receptor (Homo sapiens), sequence (P29376 whole entry): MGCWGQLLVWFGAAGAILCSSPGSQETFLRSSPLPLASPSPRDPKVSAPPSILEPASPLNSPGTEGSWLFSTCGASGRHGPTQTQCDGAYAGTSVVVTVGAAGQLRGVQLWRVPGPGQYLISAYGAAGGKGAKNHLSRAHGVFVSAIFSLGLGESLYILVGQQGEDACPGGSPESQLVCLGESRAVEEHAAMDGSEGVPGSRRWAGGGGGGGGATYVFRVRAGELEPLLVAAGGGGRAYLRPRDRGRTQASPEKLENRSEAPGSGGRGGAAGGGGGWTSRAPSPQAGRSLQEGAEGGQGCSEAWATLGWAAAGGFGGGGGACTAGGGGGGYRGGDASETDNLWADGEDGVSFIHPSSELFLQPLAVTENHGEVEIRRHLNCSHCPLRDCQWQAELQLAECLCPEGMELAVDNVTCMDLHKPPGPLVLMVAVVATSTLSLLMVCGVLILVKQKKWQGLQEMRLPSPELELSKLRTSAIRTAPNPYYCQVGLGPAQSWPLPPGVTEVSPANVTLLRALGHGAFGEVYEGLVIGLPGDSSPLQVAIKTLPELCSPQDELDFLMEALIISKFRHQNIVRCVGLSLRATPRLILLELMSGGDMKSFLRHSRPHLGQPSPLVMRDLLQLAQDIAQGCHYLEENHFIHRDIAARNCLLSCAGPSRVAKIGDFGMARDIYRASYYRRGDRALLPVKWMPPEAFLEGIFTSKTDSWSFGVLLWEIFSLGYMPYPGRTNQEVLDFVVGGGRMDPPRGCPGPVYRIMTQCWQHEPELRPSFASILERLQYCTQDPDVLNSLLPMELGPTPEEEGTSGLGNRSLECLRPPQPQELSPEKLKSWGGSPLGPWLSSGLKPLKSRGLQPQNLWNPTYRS

SMILES | residual activity [1] [%] | inhibition [2] [%] | inhibition [3] [%] | residual activity [4] [%] | inhibition [5] [%] | residual activity [6] [%] | residual activity [7] [%] | residual activity [8] [%] | residual activity [9] [%] | residual activity [10] [%] | residual activity [11] [%] | residual activity [12] [%] | residual activity [13] [%] | residual activity [14] [%] | residual activity [15] [%] | residual activity [16] [%] | residual activity [17] [%] | residual activity [18] [%] | residual activity [19] [%] | residual activity [20] [%] | further results
NS(=O)(=O)c1cc(NC(=O)Cc2ccccc2)ccc1Oc1cccc(Cl)c1 [BAY-1797] | 73 | 15.7 | -4.85 | 88 | 2.32 | 62 | 85 | 100 | 80 | 97 | 86 | 100 | 93 | 74 | 62 | 76 | 94 | 92 | 67 | 100 | residual activity [21]: 68%; residual activity [22]: 100%; residual activity [23]: 100%; inhibition [24]: -0.53%; residual activity [25]: 75%; residual activity [26]: 84%; inhibition [27]: 17.2%; residual activity [28]: 91%; residual activity [29]: 88%; residual activity [30]: 100%; residual activity [31]: 82%; residual activity [32]: 94%; residual activity [33]: 63%; residual activity [34]: 0%; residual activity [35]: 100%; residual activity [36]: 99%; residual activity [37]: 87%
NS(=O)(=O)c1cc(NC(=O)C2(c3ccccc3Cl)CC2)ccc1Oc1cccc(Cl)c1 [BAY-207] | 100 | 17.9 | 11.5 | 100 | 6.88 | 88 | 100 | 78 | 100 | 100 | 100 | 78 | 91 | 98 | 100 | 82 | 76 | 84 | 59 | 74 | residual activity [21]: 62%; residual activity [22]: 100%; residual activity [23]: 89%; inhibition [24]: 17.9%; residual activity [25]: 100%; residual activity [26]: 100%; inhibition [27]: -4.73%; residual activity [28]: 87%; residual activity [29]: 94%; residual activity [30]: 54%; residual activity [31]: 70%; residual activity [32]: 74%; residual activity [33]: 90%; residual activity [34]: 81%; residual activity [35]: 85%; residual activity [36]: 76%; residual activity [37]: 73%
